2 compounds from patent publication US12252524B2, “GIP/GLP1 co-agonist compounds” (Eli Lilly and Company, priority 2018, dated 2025) can be followed below.

Experiment [1] has as its target T1, human GLP-1R (Homo sapiens, UniProt P43220). As to the kind of experiment: [125I]-GLP-1 binding (SPA), human GLP-1 receptor. Further details: expressed in transfected cells; crude membranes. Summed up:
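Crude-membrane binding assay; one membrane prep included 1 mM MgCl2 and 25 units/ml DNAse I during lysis. Assay buffer at pH 7.4 contains 0.1% (w/v) bacitracin and 0.003% (w/v) TWEEN-20. Ki is reported as geometric mean.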

Experiment [2] addresses human GLP-1 receptor (GLP-1R) (Homo sapiens, UniProt P43220). As to the kind of experiment: cAMP pharmacological functional assay in presence of casein, hGLP-1R. Format: cell-based.
Experiment [3] deals with T2, gastric inhibitory peptide receptor (GIPR) (Homo sapiens, UniProt P48546).
T2 sequence (P48546 22-466): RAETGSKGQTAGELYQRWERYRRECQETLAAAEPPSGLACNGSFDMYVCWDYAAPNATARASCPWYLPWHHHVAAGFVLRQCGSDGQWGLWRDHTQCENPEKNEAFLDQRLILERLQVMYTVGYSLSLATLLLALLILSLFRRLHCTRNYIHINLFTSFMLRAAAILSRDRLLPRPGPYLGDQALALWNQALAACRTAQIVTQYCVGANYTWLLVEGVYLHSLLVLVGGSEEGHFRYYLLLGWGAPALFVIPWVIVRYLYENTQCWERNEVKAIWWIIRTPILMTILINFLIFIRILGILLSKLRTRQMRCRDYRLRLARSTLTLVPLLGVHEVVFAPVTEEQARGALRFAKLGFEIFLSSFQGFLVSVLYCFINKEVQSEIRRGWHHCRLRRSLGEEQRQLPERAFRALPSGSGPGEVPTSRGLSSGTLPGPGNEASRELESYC
As to the kind of experiment: cAMP pharmacological functional assay in presence of casein, hGIPR. Format: cell-based.

Experiment [4] deals with T1, human GLP-1R. As to the kind of experiment: GLP-1R HEK293 cell membrane [35S]GTPγS binding assay. Format: biochemical. Further details: expressed in transfected cells; host or cells: HEK293 cells expressing human GLP-1R; membranes. Put shortly:
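Agonist-driven Gαs activation read as [35S]GTPγS ([…]) binding to receptor-expressing HEK293 membranes, 30 min at room temperature, pH 7.4. Detection by anti-Gαs immunocapture on scintillation beads; EC50 derived from four-parameter logistic concentration-response fit.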
For orientation: Binding of GTPγS marks nucleotide exchange on a G protein.

The target in experiment [5] is T1, human GLP-1R. As to the kind of experiment: GLP-1R CHO cell β-arrestin recruitment assay. More on the design: host or cells: CHO-K1 PathHunter cells, assay-ready frozen. The settings on record: for hGLP1R B-Arrestin2 % Top: normalized to GLP-1 maximum control. The class given is cell-based. Put shortly: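 Peptide-induced β-arrestin-2 recruitment measured by enzyme-fragment complementation luminescence after 90 min at 37 °C plus 60 min detection at RT.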
Background: Recruitment of arrestin is a read-out of receptor activation apart from second messengers.

A further experiment concerns the target T3, human Gcg receptor (Homo sapiens, UniProt P47871).
T3 construct: expressed in transfected cells; crude membranes
As to the kind of experiment: [125I]-Glucagon binding (SPA), human Gcg receptor. Put shortly:
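Cell pellets were lysed in hypotonic Tris buffer, pH 7.5, homogenized, and spun at low then high speed to give crude membranes. Ki was derived from the fitted IC50.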

The next experiment concerns the target T4, human GIP receptor (Homo sapiens, UniProt P48546).
T4 construct: expressed in transfected cells; crude membranes
T4 sequence (P48546 22-466): T2 sequence (P48546 22-466)
As to the kind of experiment: [125I]-GIP binding (SPA), human GIP receptor.

A word on the pKi: it is the negative decadic logarithm of the Ki, by convention in mol/L. A higher pKi goes with a small Ki. By pEC50 is commonly meant the negative decadic logarithm of the EC50, by convention in mol/L. Broadly, the Ki is the dissociation constant of the complex between target and ligand, obtained from inhibition or displacement. What is called EC50 is the concentration needed to bring the measured effect to its halfway point.

pEC50, pKi: −log10 of the molar value. Read-outs that look alike come from different tables or passages of the source. Numbered stars: 1 amine (or outer) side, 2 acyl side, 3 side chain; on linkers, the order of the positions; unused ones are H or OH. Square brackets hold non-standard residues; d marks the D form. Side chains are listed from the residue outwards. Peptide text beside a SMILES is read from it. * marks the point of attachment. C20 diacid = O=C(O)CCCCCCCCCCCCCCCCCCC(=O)*; γGlu = O=C(O)[C@H](CCC(=O)[*:2])N[*:1]; αMeL = CC(C)C[C@](C)(N)C(=O)O; AEEA = NCCOCCOCC(=O)O; Aib = CC(C)(N)C(=O)O

T1 sequence (P43220 24-463): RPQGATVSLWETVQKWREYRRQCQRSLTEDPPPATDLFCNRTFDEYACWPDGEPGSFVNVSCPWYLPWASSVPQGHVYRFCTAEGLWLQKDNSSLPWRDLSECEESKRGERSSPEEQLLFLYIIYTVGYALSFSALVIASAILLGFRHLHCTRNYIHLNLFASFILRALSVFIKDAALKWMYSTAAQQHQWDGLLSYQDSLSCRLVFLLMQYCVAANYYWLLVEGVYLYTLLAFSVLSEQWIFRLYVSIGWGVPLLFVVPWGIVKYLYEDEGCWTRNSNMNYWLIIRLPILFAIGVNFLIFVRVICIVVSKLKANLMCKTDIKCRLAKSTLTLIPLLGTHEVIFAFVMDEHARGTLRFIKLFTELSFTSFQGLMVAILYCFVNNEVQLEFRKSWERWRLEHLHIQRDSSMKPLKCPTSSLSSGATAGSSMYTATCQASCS
Chain of human GLP-1 receptor (GLP-1R) (P43220 24-463): as above
T3 sequence (P47871 26-477): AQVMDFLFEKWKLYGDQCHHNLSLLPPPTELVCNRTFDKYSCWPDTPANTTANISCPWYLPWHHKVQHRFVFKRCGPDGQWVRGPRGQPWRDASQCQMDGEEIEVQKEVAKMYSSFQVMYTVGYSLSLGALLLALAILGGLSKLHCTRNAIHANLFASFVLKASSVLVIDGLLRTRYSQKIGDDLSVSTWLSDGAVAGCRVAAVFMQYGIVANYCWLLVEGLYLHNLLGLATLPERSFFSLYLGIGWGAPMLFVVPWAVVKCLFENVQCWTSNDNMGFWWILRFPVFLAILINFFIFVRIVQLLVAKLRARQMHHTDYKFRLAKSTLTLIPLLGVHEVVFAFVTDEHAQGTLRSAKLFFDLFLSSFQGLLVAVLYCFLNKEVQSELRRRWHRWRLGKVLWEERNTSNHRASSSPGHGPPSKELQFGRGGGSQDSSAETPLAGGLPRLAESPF

With `CC[C@H](C)[C@H](NC(=O)[C@H](CC(C)C)NC(=O)[C@H](Cc1ccc(O)cc1)NC(=O)[C@H](CCC(=O)O)NC(=O)[C@@H](NC(=O)[C@H](Cc1ccccc1)NC(=O)[C@H](C)NC(=O)C(C)(C)NC(=O)[C@H](CCC(N)=O)NC(=O)[C@H](C)NC(=O)[C@H](CCCCNC(=O)COCCOCCNC(=O)COCCOCCNC(=O)CC[C@H](NC(=O)CCCCCCCCCCCCCCCCCCC(=O)O)C(=O)O)NC(=O)[C@H](CCCCN)NC(=O)[C@H](CC(=O)O)NC(=O)[C@H](CC(C)C)NC(=O)[C@](C)(CC(C)C)NC(=O)[C@@H](NC(=O)[C@H](CO)NC(=O)[C@H](Cc1ccc(O)cc1)NC(=O)[C@H](CC(=O)O)NC(=O)[C@H](CO)NC(=O)[C@@H](NC(=O)[C@](C)(Cc1ccccc1F)NC(=O)[C@@H](NC(=O)CNC(=O)[C@H](CCC(=O)O)NC(=O)C(C)(C)NC(=O)[C@H](N)Cc1ccc(O)cc1)[C@@H](C)O)[C@@H](C)O)[C@@H](C)CC)[C@@H](C)CC)C(=O)N[C@@H](CCC(=O)O)C(=O)NCC(=O)NCC(=O)N1CCC[C@H]1C(=O)N[C@@H](CO)C(=O)N[C@@H](CO)C(=O)NCC(=O)N[C@@H](C)C(=O)N1CCC[C@H]1C(=O)N1CCC[C@H]1C(=O)N1CCC[C@H]1C(=O)N[C@@H](CO)C(N)=O` [Example 336], the results for the pKi on human GLP-1R [1], at human Gcg receptor and on human GIP receptor were 8.61, 7.77 and 10.56, respectively. Further, the negative-log EC50 (pEC50) in experiment [2] is 10.06; in experiment [3] it was 10.51; at human GLP-1R [4], 9.42; on human GLP-1R [5], 8.11. Besides, the “hGLP1R B-Arrestin2 % Top” value on human GLP-1R [5] is recorded as 82.5%.

Take `CC[C@H](C)[C@H](NC(=O)[C@H](CC(C)C)NC(=O)[C@H](Cc1ccc(O)cc1)NC(=O)[C@H](CCC(=O)O)NC(=O)[C@@H](NC(=O)[C@H](Cc1ccccc1)NC(=O)[C@H](C)NC(=O)C(C)(C)NC(=O)[C@H](CCC(N)=O)NC(=O)[C@H](C)NC(=O)[C@H](CCCCNC(=O)COCCOCCNC(=O)COCCOCCNC(=O)CC[C@H](NC(=O)CCCCCCCCCCCCCCCCCCC(=O)O)C(=O)O)NC(=O)[C@H](CCCCN)NC(=O)[C@H](CC(=O)O)NC(=O)[C@H](CC(C)C)NC(=O)[C@](C)(CC(C)C)NC(=O)[C@@H](NC(=O)[C@H](CO)NC(=O)[C@H](Cc1ccc(O)cc1)NC(=O)[C@H](CC(=O)O)NC(=O)[C@H](CO)NC(=O)[C@@H](NC(=O)[C@H](Cc1ccccc1)NC(=O)[C@@H](NC(=O)CNC(=O)[C@H](CCC(=O)O)NC(=O)C(C)(C)NC(=O)[C@@H](N)Cc1ccccc1)[C@@H](C)O)[C@@H](C)O)[C@@H](C)CC)[C@@H](C)CC)C(=O)N[C@@H](C)C(=O)NCC(=O)NCC(=O)N1CCC[C@H]1C(=O)N[C@@H](CO)C(=O)N[C@@H](CO)C(=O)NCC(=O)N[C@@H](C)C(=O)N1CCC[C@H]1C(=O)N1CCC[C@H]1C(=O)N1CCC[C@H]1C(=O)N[C@@H](CO)C(N)=O` [Example 337] (H-F[Aib]EGTFTSDYSI[αMeL]LDKK([AEEA-AEEA-γGlu-C20 diacid])AQ[Aib]AFIEYLIAGGPSSGAPPPS-NH2): the Ki worked out at 1.61 nM on human GLP-1R [1] (read-out: hGLP1R Ki, (nM) (SEM, n)); 335 nM at human Gcg receptor (read-out: hGLcgR Ki, nM (SEM, n)); 0.0363 nM on human GIP receptor (read-out: hGIPR Ki, nM (SEM, n)). Moreover, the EC50 in experiment [2] (HEK293 cells expressing hGLP-1R, 0.1% Casein, geometric mean, read-out: hGLP1R cAMP Rel EC50 nM (SEM, n)) is 0.173 nM; in experiment [3] (HEK293 cells expressing hGIPR, 0.1% Casein, geometric mean, read-out: hGIPR cAMP Rel EC50 nM (SEM, n)), 0.0515 nM; at human GLP-1R [4] (HEK293 cell membranes expressing human GLP-1R, [35S]GTPγS binding, read-out: hGLP1R GTPgS Rel EC50 nM (SEM, n)) it was 0.322 nM; on human GLP-1R [5] (CHO-K1 cells, PathHunter β-arrestin-2 recruitment, 0.1% casein, read-out: hGLP1R B-Arrestin2 Rel EC50 uM (SEM, n)), 0.0174 µM. Moreover, the “hGLP1R B-Arrestin2 % Top” value on human GLP-1R [5] turned out to be 34.1%.
